Measurements reported in patent publication US20250100982A1, “PLEUROMUTILIN DERIVATIVE WITH THIAZOLE SIDE CHAIN AND PREPARATION AND APPLICATION” (SOUTH CHINA AGRICULTURAL UNIVERSITY, priority 2023, published 2025).
Converted amounts (≈) assume the structure as drawn.

Experiments:
[1] = tested on: Mycoplasma gallisepticum 352-tiamulin resistant strain; test: microbe, parasite or virus in culture; assay type: cell-based; details: for MIC, Mycoplasma gallisepticum 352-tiamulin resistant strain: broth dilution, 37° C.
Procedure: (§1) The broth dilution method was adopted in the experiment. The tiamulin was selected as the control drug in the experiment.
(§2) The strains used in the experiment were Mycoplasma gallisepticum 352, 352-tiamulin resistant strain, and M47.
(§3) Preparation of the target compound stock solution: the compound was dissolved with 1 mL of DMSO, then fixed in volume with a 250 mL volumetric flask and fully shaken to obtain the stock solution (5120 μg/mL).
(§4) The stock solution was diluted in petri dishes with a doubling dilution method. Each petri dish contained 2 ml of medical solution, and the medical solution was diluted to 20 ml, so that the final concentrations of the compound were […] respectively.
(§5) 15 sterile 2 mL EP tubes were placed in each row. 0.9 mL of liquid medium was added to the first tube, and 0.5 mL of liquid medium was added to the other tubes respectively. 0.1 mL of prepared medical solution was added to the first tube and fully mixed. Then, 0.5 mL of medical solution was added to the second tube, and so on. Finally, 0.5 mL of medical solution was absorbed and discarded.

[2] = tested on: Mycoplasma gallisepticum M47; test: In vitro inhibition experiment of mycoplasma activity, broth dilution MIC; assay type: cell-based; details: clinical isolate; for MIC, Mycoplasma gallisepticum M47: 37° C.
Procedure: as §1, §2, §3, §4, §5

[3] = tested on: Mycoplasma gallisepticum 352; test: as above; assay type: cell-based; details: for MIC, Mycoplasma gallisepticum 352: 37° C.
Procedure: as §1, §2, §3, §4, §5

[4] = tested on: methicillin-resistant Staphylococcus aureus ATCC43300; test: microbe, parasite or virus in culture; assay type: cell-based; details: 24 h; for MIC, MRSA ATCC 43300: broth dilution, 37° C.
Description: (§6) A broth dilution method was used in the experiment. Tiamulin was selected as a control drug in the experiment. The tiamulin is a pleuromutilin antibiotic as well as one of the top ten veterinary antibiotics in the world.
(§7) The strains used in the experiment were methicillin-resistant Staphylococcus aureus ATCC43300, Staphylococcus aureus ATCC29213, clinical Staphylococcus aureus AD3, clinical S. aureus 144, Mycoplasma gallisepticum 352, 352 tiamulin induced drug-resistant bacteria and clinical isolates M47.
(§8) Preparation of target compound stock solution: 6.4 mg of target compound was accurately weighed, placed in a 5 mL volumetric flask, and dissolved with 0.25 mL of DMSO and 0.25 mL of Tween 80; then 4.5 mL of distilled water was added for fixing the volume; the solution was fully shaken to obtain a stock solution (1280 μg/mL); and the stock solution was filtered with a 0.22 μm filter membrane and sterilized, subpackaged into small tubes, and stored at −20° C. The control drug tiamulin was also prepared according to the above method.
(§9) Preparation of bacterial solution: the strains that were well preserved at −20° C. were taken out and inoculated on a new MH plate, and after culture at 37° C. for 24 h, a single colony was selected and inoculated in MH medium for culturing again for 24 h. The selected single colony was transferred to sterile normal saline and the turbidity was adjusted to 0.6 McF. At this moment, the concentration of the bacterial solution was 10^6 CFU/mL.
(§10) Preparation of MIC plate: a sterile 96-well plate was taken; 180 μL of MH broth medium was added to the first well, 100 μL of MH broth medium was added to the second well to the 12th well; 20 μL of target compound solution with a concentration of 1280 μg/mL was added to the first well; after even mixing, 100 μL of solution was added to the second well, and mixed well; 100 μL of solution was absorbed to the third well, and so on; and 100 μL of solution was absorbed to the 12th well and discarded. At this moment, the drug concentrations in the wells were: 128, 64, 32, 16, 8, 4, 2, 1, 0.5, 0.25, 0.125, and 0.06 μg/mL, and three parallel groups were made for the drugs of the concentrations.
(§11) Inoculation of bacterial solution: 100 μL of bacterial solution was added into the first well to the 12th well, so that the final bacterial solution concentration in each well was about 5×10^5 CFU/mL, and the drug concentrations in the first well to the 12th well were 64, 32, 16, 8, 4, 2, 1, 0.5, 0.25, 0.125, 0.06 and 0.03 μg/mL respectively. […] When a single jumping hole occurred in the microbroth dilution method, the maximum drug concentration for inhibiting bacteria was recorded, and the experiment shall be repeated if multiple jumping holes occurred.

[5] = tested on: clinical S. aureus 144; test: In vitro antibacterial experiment, broth dilution MIC; assay type: cell-based, Staphylococcus aureus; details: 37° C., 24 h, clinical isolate
Description: as §6, §7, §8, §9, §10, §11

[6] = tested on: Staphylococcus aureus ATCC29213; test: as above; assay type: cell-based; details: 24 h; for MIC, S. aureus ATCC 29213: 37° C.
Description: as §6, §7, §8, §9, §10, §11

[7] = tested on: clinical Staphylococcus aureus AD3; test: as above; assay type: cell-based; details: 37° C., 24 h, clinical isolate
Description: as §6, §7, §8, §9, §10, §11

SMILES | MIC ([1]; Mycoplasmoides gallisepticum, read-out: MIC, Mycoplasma gallisepticum 352-tiamulin resistant strain) [µg/mL] | MIC ([2]; Mycoplasmoides gallisepticum, M47, 37° C.) [µg/mL] | MIC ([3]; Mycoplasmoides gallisepticum, 352, 37° C.) [µg/mL] | MIC ([4]; Staphylococcus aureus, ATCC 43300 / MRSA, read-out: MIC, MRSA ATCC 43300) [µg/mL] | MIC ([5]; Staphylococcus aureus) [µg/mL] | MIC ([6]; Staphylococcus aureus, ATCC29213, 37° C., read-out: MIC, S. aureus ATCC 29213) [µg/mL] | MIC ([7]; Staphylococcus aureus, read-out: MIC, S. aureus AD3) [µg/mL] | MIC, Mycoplasma gallisepticum 352-tiamulin resistant strain [1] [µg/mL] | MIC, Mycoplasma gallisepticum M47 [2] [µg/mL] | MIC, Mycoplasma gallisepticum 352 [3] [µg/mL] | MIC, MRSA ATCC 43300 [4] [µg/mL] | MIC, S. aureus 144 [5] [µg/mL] | MIC, S. aureus ATCC 29213 [6] [µg/mL] | MIC, S. aureus AD3 [7] [µg/mL]
C=C[C@]1(C)C[C@@H](OC(=O)CSCCN(CC)CC)[C@]2(C)[C@H](C)CC[C@]3(CCC(=O)[C@H]32)[C@@H](C)[C@@H]1O [Tiamulin, reference compound] | 0.25 (≈ 0.506 µM) | 0.125 (≈ 0.253 µM) | ≤ 0.004 | 0.5 (≈ 1.01 µM) | 1 (≈ 2.03 µM) | 1 (≈ 2.03 µM) | 1 (≈ 2.03 µM) | – | – | – | – | – | – | –
C=CC1(C)CC(OC(=O)CSc2ncc(NC(=O)C3CCC3)s2)C2(C)C(C)CCC3(CCC(=O)C32)C(C)C1O (stereo not drawn) [Compound 2] | – | – | – | – | – | – | – | 0.25 (≈ 0.435 µM) | 0.5 (≈ 0.87 µM) | 0.008 (≈ 0.0139 µM) | 0.0625 (≈ 0.109 µM) | 0.25 (≈ 0.435 µM) | 0.125 (≈ 0.217 µM) | 0.125 (≈ 0.217 µM)
C=CC1(C)CC(OC(=O)CSc2ncc(NC(=O)COC(C)=O)s2)C2(C)C(C)CCC3(CCC(=O)C32)C(C)C1O (stereo not drawn) [Compound 10] | – | – | – | – | – | – | – | 0.03 (≈ 0.0506 µM) | 0.03 (≈ 0.0506 µM) | ≤0.004 | 0.0625 (≈ 0.105 µM) | 0.0625 (≈ 0.105 µM) | 0.125 (≈ 0.211 µM) | 0.125 (≈ 0.211 µM)
C=CC1(C)CC(OC(=O)CSc2ncc(NC(=O)C3CCCCC3)s2)C2(C)C(C)CCC3(CCC(=O)C32)C(C)C1O (stereo not drawn) [Compound 4] | – | – | – | – | – | – | – | 0.25 (≈ 0.415 µM) | 1 (≈ 1.66 µM) | 0.015 (≈ 0.0249 µM) | 0.125 (≈ 0.207 µM) | 0.0625 (≈ 0.104 µM) | 0.03125 (≈ 0.0518 µM) | 0.0625 (≈ 0.104 µM)
C=CC1(C)CC(OC(=O)CSc2ncc(NC(=O)C(Cl)(Cl)Cl)s2)C2(C)C(C)CCC3(CCC(=O)C32)C(C)C1O (stereo not drawn) [Compound 23] | – | – | – | – | – | – | – | 1 (≈ 1.57 µM) | 4 (≈ 6.27 µM) | 0.125 (≈ 0.196 µM) | 1 (≈ 1.57 µM) | 2 (≈ 3.13 µM) | 2 (≈ 3.13 µM) | 1 (≈ 1.57 µM)
C=CC1(C)CC(OC(=O)CSc2ncc(NC(=O)C(C)(C)CC)s2)C2(C)C(C)CCC3(CCC(=O)C32)C(C)C1O (stereo not drawn) [Compound 18] | – | – | – | – | – | – | – | 0.5 (≈ 0.846 µM) | 1 (≈ 1.69 µM) | 0.03 (≈ 0.0508 µM) | 0.25 (≈ 0.423 µM) | 0.5 (≈ 0.846 µM) | 0.25 (≈ 0.423 µM) | 0.25 (≈ 0.423 µM)
